Reference: ChEMBL document CHEMBL2150907, “BACE-Inhibitors: Potential Treatment of Alzheimer Disease, Dementia, and Related Neurodegenerative Diseases. C. Spiro-Heterocyclic Derivatives: Patent Highlight” (ACS Med Chem Lett, 2012)

Each molecule was assayed against Beta-secretase 1 (Homo sapiens, UniProt P56817) (assay: Inhibition of BACE1-mediated amyloid beta (1 to 40) production after 48 hrs by cell based HTRF immunoassay).
Sequence of Beta-secretase 1 (P56817 whole entry): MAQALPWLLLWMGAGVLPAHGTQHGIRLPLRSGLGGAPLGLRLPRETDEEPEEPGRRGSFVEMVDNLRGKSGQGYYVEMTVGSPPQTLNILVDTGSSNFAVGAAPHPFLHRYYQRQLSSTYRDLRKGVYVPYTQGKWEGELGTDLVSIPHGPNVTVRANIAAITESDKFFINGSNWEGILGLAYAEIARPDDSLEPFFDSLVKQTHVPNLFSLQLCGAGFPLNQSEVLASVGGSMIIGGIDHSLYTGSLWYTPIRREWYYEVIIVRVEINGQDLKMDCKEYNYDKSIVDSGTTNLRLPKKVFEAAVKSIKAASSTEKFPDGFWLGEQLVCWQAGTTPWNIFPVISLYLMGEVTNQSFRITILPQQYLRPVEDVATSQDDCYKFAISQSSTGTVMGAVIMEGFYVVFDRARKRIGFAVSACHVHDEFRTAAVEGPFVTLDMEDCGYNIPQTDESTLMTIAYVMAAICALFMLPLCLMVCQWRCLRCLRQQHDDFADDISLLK
`CN1C(=O)CC2(N=C1N)c1cc(-c3cc(F)cc(Cl)c3)ccc1OC1CC3(CC[C@@H]12)OCCO3` (stereo partly drawn) gave an IC50 of 3080 nM.
`NC1=N[C@]2(CO1)c1cc(-c3cncc(Cl)c3)ccc1OC1OC[C@H](OCC3CC3)C[C@@H]12` (mixture of isomers) was tested, and the IC50 was 8.9 nM.
With `NC1=N[C@@]2(CO1)c1cc(-c3cncc(Cl)c3)ccc1OC1OC[C@H](OCC3CC3)C[C@@H]12` (single isomer, unassigned) the IC50 was 7.8 nM.
